Data published in patent publication US11065616B2, “Methods of making microfluidic devices” (KING ABDULLAH UNIVERSITY OF SCIENCE AND TECHNOLOGY, priority 2015, dated 2021).

Test system: Hela cells
Assay: Cytotoxicity of Doxorubicin concentrations generated by the microfluidic gradient generator (CCK-8)
Assay type: cell-based, Human
Conditions: gradient 100-0 μg/ml DOX at the outlet ports, 24 h incubation, surface modified channels
Procedure: Hela cells were cultured in EMEM media supplemented with 10% fetal bovine serum (FBS) and 1% penicillin-streptomycin at 37° C. in a 5% CO2 humidified atmosphere. After cell detachment, the cell suspension was centrifuged, the pallet was collected, and cells were counted for further plating. Hela cells were seeded in 96 well plates at a density of 5×10^3/well. Alter 24 h, cells were treated with five different concentrations of the anticancer drug Doxorubicin (DOX) generated by the microfluidic gradient generator at a flow rate of 8.5 μl/min. The incubation of cells with test samples lasts for 24 h at 37° C. Then, the culture medium was discarded, and 100 μL of CCK8 solution in MEM media were added to each well and incubated for 4 h in darkness. The absorbance values were measured at […] using the xMark™ microplate absorbance spectrophotometer.
Two types of 3D printer resins (1) FormLabs clear and (2) Spot-Elastic were used to build microfluidic devices. The media for cell cultures were injected by passing the EMEM media through the reported microfluidic gradient generator, Both the inlets were fed with media for the first experiment. […] Doxorubicin was introduced to the cell culture after surface modification, and only one of the inlets was fed with Doxorubicin incorporated EMEM media and the other was fed with normal (Doxorubicin-free) EMEM media. […]

## COc1cccc2c1C(=O)c1c(O)c3c(c(O)c1C2=O)C[C@@](O)(C(=O)CO)C[C@@H]3O[C@H]1C[C@H](N)[C@H](O)[C@H](C)O1 [DOX, Doxorubicin]
  cell viability versus DOX concentration (in words): higher viability with a decrease in concentration of DOX
